How the values were obtained:
Format in all cases: cell-based, human
[1] = test system: Peripheral blood mononuclear cells, B cells; experiment: BioMAP Diversity PLUS BT system (T cell dependent B cell activation); details: for interleukin 17A (IL-17A): human cell system mimicking asthma, autoimmunity and allergies (FIG. 5)
Experimental: (§1) This study examined activities of small molecules discovered in dolphin serum that had protective profiles against diseases of aging which can impact quality of life and longevity. These molecules were tested across 12 human primary cell-based systems as part of DiscoverX's BioMAP Diversity Plus program. These systems are designed to model complex human tissue and disease biology of the vasculature, skin, lung, and inflammatory tissues. Quantitative measurements of biomarker activities across this broad panel, along with comparative analysis of biological activities of known bioactive agents were used to predict and compare the efficacy and function of the four compounds. Compounds were tested at four concentrations (740 nm and 2.2, 6.7 and 20 μM).
(§2) BioMAP panels consist of human primary cell-based systems designed to model different aspects of the human body in an in vitro format. The 12 systems in the Diversity PLUS panel allow test agent characterization in an unbiased way across a broad set of systems modeling various human disease states. BioMAP systems are constructed with one or more primary cell types from healthy human donors, with stimuli (such as cytokines or growth factors) added to capture relevant signaling networks that naturally occur in human tissue or pathological conditions. Vascular biology is modeled in both a Th1 (3C system) and a Th2 (4H system) inflammatory environment, as well as in a Th1 inflammatory state specific to arterial smooth muscle cells (CASM3C system). Additional systems recapitulate aspects of the systemic immune response including monocyte-driven Th1 inflammation (LPS system) or T cell stimulation (SAg system), chronic Th1 inflammation driven by macrophage activation (lMphg system) and the T cell-dependent activation of B cells that occurs in germinal centers (BT system). The BE3C system (Th1) and the BF4T system (Th2) represent airway inflammation of the lung, while the MyoF system models myofibroblast-lung tissue remodeling. Lastly, skin biology is addressed in the KF3CT system modeling Th1 cutaneous inflammation and the HDF3CGF system modeling wound healing.
(§3) Each test agent generates a signature BioMAP profile that is created from the changes in protein biomarker readouts within individual system environments. Biomarker readouts (7-17 per system) are selected for therapeutic and biological relevance, are predictive for disease outcomes or specific drug effects and are validated using agents with known mechanism of action (MoA). Each readout is measured quantitatively by immune-based methods that detect protein (e.g., ELISA) or functional assays that measure proliferation and viability. BioMAP readouts are diverse and include cell surface receptors, cytokines, chemokines, matrix molecules and enzymes.
(§4) The Diversity PLUS panel allows test agent characterization in an unbiased way across a broad set of systems modeling various human disease states. These systems are designed to model complex human tissue and disease biology of the vasculature, skin, lung, and inflammatory tissues.
(§5) BioMAP systems are constructed with one or more primary cell types from healthy human donors, with stimuli (such as cytokines or growth factors) added to capture relevant signaling networks that naturally occur in human tissue or pathological conditions. Vascular biology is modeled in both a Th1 (3C system) and a Th2 (4H system) inflammatory environment, as well as in a Th1 inflammatory state specific to arterial smooth muscle cells (CASM3C system). Additional systems recapitulate aspects of the systemic immune response including monocyte-driven Th1 inflammation (LPS system) or T cell stimulation (SAg system), chronic Th1 inflammation driven by macrophage activation (lMphg system) and the T cell-dependent activation of B cells that occurs in germinal centers (BT system).

Dermal fibroblasts = experiment: BioMAP Diversity PLUS HDF3CGF system (wound healing and matrix/tissue remodeling); details: for decorin: human cell system mimicking wound healing, remodeling, fibrosis and chronic inflammation (FIG. 7); for Significant log10 reduction compared to nontreated controls: Macrophage colony-stimulating factor (M-CSF): HDF3CGF system
Experimental: as §1, §2, §3, §4, §5

[2] = test system: Venular endothelial cells, peripheral blood mononuclear cells; experiment: BioMAP Diversity PLUS SAg system (T cell stimulation, Th1 type chronic inflammation); details: for T cell proliferation: concentrations ranging from 740 nm to 6.7 μM (FIG. 2); for Significant log10 reduction compared to nontreated controls: T cell proliferation / Significant log10 reduction compared to nontreated controls: CD40: SAg system
Experimental: as §1, §2
as §3, with “enzymes. In total, the Diversity PLUS panel contains 148 biomarker readouts that capture biological changes that occur within the physiological context of the particular BioMAP system. Specific BioMAP activities have been correlated to in vivo biology, and multiparameter BioMAP profiles have been used to distinguish compounds based on MoA and target selectivity across diverse physiological systems.” for “enzymes.”
(§6) The Diversity PLUS panel allows test agent characterization in an unbiased way across a broad set of systems modeling various human disease states. These systems are designed to model complex human tissue and disease biology of the vasculature, skin, lung, and inflammatory tissues. Quantitative measurements of 148 biomarker activities across this broad panel, along with comparative analysis of biological activities from known bioactive agents, were used to predict and compare the efficacy and function of each selected compound at four concentrations (740 nm and 2.2, 6.7 and 20 μM). […]

[3] = test system: Venular endothelial cells, peripheral blood mononuclear cells; experiment: BioMAP Diversity PLUS LPS system (Th1 type chronic inflammation, monocyte activation); details: for secretion of prostaglandin E2 (PGE2): human cell system mimicking T-cell and monocyte driven chronic inflammation and cardiovascular diseases (FIG. 4)
Experimental: as §1, §2, §3, §4, §5

Lung fibroblasts = experiment: BioMAP Diversity PLUS MyoF system (myofibroblast differentiation and tissue remodeling)
Experimental: as §1, §2
as §3, with “enzymes. In total, the Diversity PLUS panel contains 148 biomarker readouts that capture biological changes that occur within the physiological context of the particular BioMAP system. Specific BioMAP activities have been correlated to in vivo biology, and multiparameter BioMAP profiles have been used to distinguish compounds based on MoA and target selectivity across diverse physiological systems.” for “enzymes.”
as §6

[4] = test system: Macrophages, venular endothelial cells; experiment: BioMAP Diversity PLUS lMphg system (Th1 type chronic inflammation, macrophage activation); details: /Mphg system; 20.0 μM
Experimental: as §1, §2
as §3, with “enzymes. In total, the Diversity PLUS panel contains 148 biomarker readouts that capture biological changes that occur within the physiological context of the particular BioMAP system. Specific BioMAP activities have been correlated to in vivo biology, and multiparameter BioMAP profiles have been used to distinguish compounds based on MoA and target selectivity across diverse physiological systems.” for “enzymes.”
as §6

[5] = test system: Bronchial epithelial cells; experiment: BioMAP Diversity PLUS BE3C system (Th1 type lung inflammation)
Experimental: as §1, §2
as §3, with “enzymes. In total, the Diversity PLUS panel contains 148 biomarker readouts that capture biological changes that occur within the physiological context of the particular BioMAP system. Specific BioMAP activities have been correlated to in vivo biology, and multiparameter BioMAP profiles have been used to distinguish compounds based on MoA and target selectivity across diverse physiological systems.” for “enzymes.”
as §6

[6] = human cell system mimicking T-cell driven chronic inflammation and autoimmune diseases

O=C(O)[C@@H]1C[C@@H](O)CN1 (relative stereo) [Trans-4-hydroxyproline]
interleukin 17A (IL-17A) [1]: lowered
decorin (Dermal fibroblasts): inhibitory activity
T cell proliferation [2, 6]: decreased

O=C(O)Cc1c[nH]cn1 [4-imidazoleacetate]
Significant log10 reduction compared to nontreated controls: Secreted interleukin 17F (IL-17F) ([1]; BT system, 0.7 μM): −0.16 log10
Significant log10 reduction compared to nontreated controls: T cell proliferation ([2]; 2.2 μM): −0.11 log10
Significant log10 reduction compared to nontreated controls: T cell proliferation ([2]; 6.7 μM): −0.09 log10
Significant log10 reduction compared to nontreated controls: T cell proliferation ([2]; 20.0 μM): −0.09 log10
T cell proliferation [2, 6]: decreased

NCCCCC(=O)O [5-aminovalerate]
Significant log10 reduction compared to nontreated controls: Tumor necrosis factor alpha (TNFα) ([1]; BT system, 6.7 μM): −0.11 log10
decorin (Dermal fibroblasts): inhibitory activity
Significant log10 reduction compared to nontreated controls: Secreted prostaglandin E2 (PGE2) ([3]; LPS system, 6.7 μM): −0.10 log10
secretion of prostaglandin E2 (PGE2) [3]: lowered
Significant log10 reduction compared to nontreated controls: T cell proliferation ([2]; 0.7 μM): −0.7 log10
Significant log10 reduction compared to nontreated controls: T cell proliferation ([2]; 2.2 μM): −0.12 log10
Significant log10 reduction compared to nontreated controls: T cell proliferation ([2]; 6.7 μM): −0.14 log10
T cell proliferation [2, 6]: decreased
Significant log10 reduction compared to nontreated controls: Decorin (Lung fibroblasts; 6.7 μM): −0.07 log10
Significant log10 reduction compared to nontreated controls: Decorin (Lung fibroblasts; 20.0 μM): −0.10 log10

C=CCCCCCCCCC(=O)O [10-undecanoate (C11:1n1), 10-undecanoate]
Significant log10 reduction compared to nontreated controls: Secreted interleukin 17A (IL-17A) ([1]; BT system, 2.2 μM): −0.25 log10
Significant log10 reduction compared to nontreated controls: Secreted interleukin 17A (IL-17A) ([1]; BT system, 20.0 μM): −0.20 log10
Significant log10 reduction compared to nontreated controls: Secreted tumor necrosis factor alpha (TNFα) ([1]; BT system, 20.0 μM): −0.12 log10
interleukin 17A (IL-17A) [1]: lowered
Significant log10 reduction compared to nontreated controls: Secreted interleukin 10 (IL-10) [4]: −0.21 log10
Significant log10 reduction compared to nontreated controls: Macrophage colony-stimulating factor (M-CSF) (Dermal fibroblasts; 0.7 μM): −0.11 log10
Significant log10 reduction compared to nontreated controls: Macrophage colony-stimulating factor (M-CSF) (Dermal fibroblasts; 2.2 μM): −0.07 log10
Significant log10 reduction compared to nontreated controls: Secreted prostaglandin E2 (PGE2) ([3]; LPS system, 0.7 μM): −0.11 log10
Significant log10 reduction compared to nontreated controls: Secreted prostaglandin E2 (PGE2) ([3]; LPS system, 2.2 μM): −0.08 log10
Significant log10 reduction compared to nontreated controls: Secreted prostaglandin E2 (PGE2) ([3]; LPS system, 6.7 μM): −0.20 log10
Significant log10 reduction compared to nontreated controls: CD40 ([3]; LPS system, 20.0 μM): −0.11 log10
secretion of prostaglandin E2 (PGE2) [3]: lowered
Significant log10 reduction compared to nontreated controls: CD40 ([2]; 0.7 μM): −0.07 log10
Significant log10 reduction compared to nontreated controls: CD40 ([2]; 2.2 μM): −0.14 log10
Significant log10 reduction compared to nontreated controls: CD40 ([2]; 6.7 μM): −0.09 log10
CD40 ([2]; human cell system mimicking T-cell driven chronic inflammation and autoimmune diseases, 740 nm, 2.2 μM, and 6.7 μM (FIG. 3)): lowered
T cell proliferation [2, 6]: decreased
Significant log10 reduction compared to nontreated controls: Tissue plasminogen activator (tPA) ([5]; 2.2 μM): −0.08 log10
Significant log10 reduction compared to nontreated controls: Tissue plasminogen activator (tPA) ([5]; 6.7 μM): −0.11 log10
Significant log10 reduction compared to nontreated controls: Tissue plasminogen activator (tPA) ([5]; 20.0 μM): −0.12 log10
